The values that follow come from PMC10797628.

Substitutions are numbered along the chain they refer to.

In one series the target is T1, V3.33I 5-HT1A receptor (Homo sapiens, UniProt P08908, V117I).
T1 sequence (P08908 1-422 V117I): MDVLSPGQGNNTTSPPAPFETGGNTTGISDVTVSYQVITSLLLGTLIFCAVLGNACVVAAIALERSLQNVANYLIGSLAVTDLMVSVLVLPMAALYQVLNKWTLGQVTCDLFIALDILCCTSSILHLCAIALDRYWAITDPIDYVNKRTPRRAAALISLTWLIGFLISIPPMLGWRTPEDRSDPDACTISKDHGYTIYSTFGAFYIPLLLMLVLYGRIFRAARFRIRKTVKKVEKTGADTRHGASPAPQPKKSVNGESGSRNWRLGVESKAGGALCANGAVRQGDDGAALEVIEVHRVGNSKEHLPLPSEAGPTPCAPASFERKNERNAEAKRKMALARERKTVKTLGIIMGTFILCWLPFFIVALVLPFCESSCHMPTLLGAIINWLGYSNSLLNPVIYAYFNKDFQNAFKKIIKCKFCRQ
The experiment in a line: cAMP accumulation in HEK293T cells, V3.33I 5-HT1A. On the set-up: mutated in house (Quikchange II) HTR01A0000; host or cells: HEK293T. The settings on record: point-mutated receptor, 3 independent experiments, read-out: pEC50 5-HT1A Receptor V3.33I (converted). The series is classed as cell-based. As to the method:
(§1) Briefly, cells transfected with the desired receptor construct and compounds were incubated in the dark for 90 min at 37 °C. After incubation, cAMP detection reagents were added, and TR-FRET was used to quantify the cAMP produced.
(§2) The functional activity of compounds was determined by stimulating cells expressing the desired receptor with FSK and test compound in parallel with 12 known concentrations of cAMP. The known concentrations of cAMP were used to create a standard curve for each experiment that was used to interpolate the unknown values of cAMP in wells with test compounds. […] The EC50 and EMAX values were determined using the “dose response – log[agonist] vs response (three parameter)” nonlinear regression model in Prism and transformed to pEC50 values, reported as mean ± SD.
(§3) Summary of functional assay conditions at various 5-HT1 receptor point mutation constructs.
(In general: cAMP levels reflect the balance of adenylyl cyclase and phosphodiesterase activity.)

In a further series the target is T2, Y5.38A 5-HT1A receptor (Homo sapiens, UniProt P08908, Y195A).
T2 sequence (P08908 1-422 Y195A): T1 sequence (P08908 1-422 V117I) with I117V, Y195A
The series is described as follows: cAMP accumulation in HEK293T cells, Y5.38A 5-HT1A. The series is classed as cell-based. On the set-up: mutated in house (Quikchange II) HTR01A0000; host or cells: HEK293T. Conditions: point-mutated receptor, 3 independent experiments, read-out: pEC50 5-HT1A Receptor Y5.38A (converted). On the procedure: as §1, §2, §3

The test system of series [1] is mouse model of fragile X syndrome. On the set-up: method as in PMID 32566916. The settings on record: cited from earlier work.
Details of series [2]: method as in PMID 26011730. Conditions: cited from earlier work.

Regarding `Fc1ccccc1-c1cccc2c1CC[C@H](N1CCCC1)C2` [(S)-PFPT], the figures for the EC50 at V3.33I 5-HT1A receptor and at Y5.38A 5-HT1A receptor were 10.5 nM and 2.04 nM, respectively.

Consider `CN(C)[C@H]1CCc2c(cccc2-c2ccccc2F)C1` [(S)-FPT], for which, in series [1], the prosocial behaviors result is on record as “increased”, the repetitive behaviors entry was “reduced” and the spontaneous seizures entry is reported as “reduced”. Moreover, in series [2], the oral activity entry is “orally active” and the sedation result was “did not cause sedation”.

Regarding `CN(C)[C@H]1CCc2c(cccc2-c2cccc3ccccc23)C1` [(S)-NAP], the EC50 at V3.33I 5-HT1A receptor was 355 nM; on Y5.38A 5-HT1A receptor, 4680 nM.
